Source: PMC8205030, “Methoxy and bromo scans on N-(5-methoxyphenyl) methoxybenzenesulphonamides reveal potent cytotoxic compounds, especially against the human breast adenocarcinoma MCF7 cell line” (Journal of Enzyme Inhibition and Medicinal Chemistry, 2021)

Assays:
[1] = target: T1, microtubular protein isolated from calf brain (Bos taurus, UniProt P81947+Q6B856); assay: Inhibition of tubulin polymerisation (turbidity); type: biochemical
T1 construct: isolated from calf brain according to the modified Shelanski method; from tissue; host or cells: calf brain

[2] = test system: HEK293 (human embryonic kidney) cells; assay: Cell growth assay (XTT), non-tumorigenic HEK293; type: cell-based
Protocol: The presence of mycoplasma was routinely checked with MycoAlert kit (Lonza-Cambrex) and only mycoplasma-free cells were used in the experiments. Tumour cell lines were kindly provided by Dr Faustino Mollinedo from Centro de Investigaciones Biológicas Margarita Salas, Madrid, Spain. To determine cell growth, cells in exponential growth phase were seeded (100 µL/well in 96-well plates) with appropriate cell concentration (1.5 × 10^4 cells/mL for MCF7, HeLa and HEK-293 and 3 × 10^4 cells/mL for HT-29) in complete DMEM or RPMI 1640 medium (see above) at 37 °C and 5% CO2 atmosphere. After 24 h incubation, to allow cells to attach to the plates, all compounds were added at 1 µM concentration (10 µL/well in 96-well plates) and the effect on the proliferation was evaluated 72 h post-treatment. Compounds showing antiproliferative effects at tested concentration were selected for IC50 calculation (50% inhibitory concentration compared to the untreated controls) from 10^−5 to 10^−10 M concentration. Nonlinear curves fitting the experimental data were carried out for each compound. […] A freshly prepared mixture solution of XTT labelling reagent with 0.02% (v/v) PMS (N-methyl-dibenzopyrazine methyl sulfate) electron coupling reagent was added to cells (50 µL/well in 96-well plates, the total volume of 160 µL/well) and were incubated during the corresponding time according to each cell line (4 h for MCF7 and HeLa and 6 h for HT-29 and HEK-293) in a humidified atmosphere (37 °C, 5% CO2). The absorbance of the formazan product generated was measured at a test wavelength of 450 nm using a multi-well plate reader (Ultra Evolution, Tecan, Männedorf, Suiza). Compounds were dissolved in DMSO and the final solvent concentrations never exceeded 0.5% (v/v). The control wells included treated cells with 0.5% (v/v) DMSO and the positive control. 10 µM verapamil was included as a control for the HT-29 cell line. Measurements were performed in triplicate, and each experiment was repeated three times.

MCF7 cells = assay: Apoptotic cell death quantification (Annexin V-FITC/PI), MCF7; type: cell-based, human; settings: 72 h
Protocol: MCF7, HeLa, and HT-29 apoptotic cells were quantified using an Annexin V-FITC/PI apoptosis detection kit (Immunostep, Salamanca, Spain) according to the manufacturer’s guidelines. 1.5 ml/well of cells in the exponential growth phase at 2 × 10^4 cells/mL were seeded onto 12-well plates and left to attach overnight. After 24 h incubation, cells were treated with compound 25 at 87.5 or 175 nM. 72 h post-treatment, attached and floating cells of treated and untreated wells were collected, centrifuged, resuspended in the Annexin V binding buffer, and stained with Annexin V-FITC/PI. Cells were then incubated in darkness at room temperature for 15 min and a total of 30,000 cells were acquired and analysed using the BD Accuri™ C6 Plus Flow Cytometer and Software (version 1.0.264.21, BD Biosciences, San José, CA, USA), respectively. Compounds were dissolved in DMSO and the final solvent concentrations never exceeded 0.5% (v/v). Control wells included cells with 0.5% (v/v) DMSO.

T1 sequence (Q6B856 whole entry): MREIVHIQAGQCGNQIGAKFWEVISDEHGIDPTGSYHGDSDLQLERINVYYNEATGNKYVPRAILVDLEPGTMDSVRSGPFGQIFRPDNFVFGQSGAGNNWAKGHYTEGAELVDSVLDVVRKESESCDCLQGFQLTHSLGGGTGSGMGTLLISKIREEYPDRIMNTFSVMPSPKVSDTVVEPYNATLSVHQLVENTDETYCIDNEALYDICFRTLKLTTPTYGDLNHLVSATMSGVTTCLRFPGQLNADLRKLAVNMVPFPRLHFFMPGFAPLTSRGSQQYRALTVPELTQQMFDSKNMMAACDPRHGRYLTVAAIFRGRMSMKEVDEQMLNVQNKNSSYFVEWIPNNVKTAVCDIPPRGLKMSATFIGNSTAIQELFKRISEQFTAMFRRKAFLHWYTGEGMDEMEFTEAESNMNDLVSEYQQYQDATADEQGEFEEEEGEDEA
T1 sequence (P81947 whole entry): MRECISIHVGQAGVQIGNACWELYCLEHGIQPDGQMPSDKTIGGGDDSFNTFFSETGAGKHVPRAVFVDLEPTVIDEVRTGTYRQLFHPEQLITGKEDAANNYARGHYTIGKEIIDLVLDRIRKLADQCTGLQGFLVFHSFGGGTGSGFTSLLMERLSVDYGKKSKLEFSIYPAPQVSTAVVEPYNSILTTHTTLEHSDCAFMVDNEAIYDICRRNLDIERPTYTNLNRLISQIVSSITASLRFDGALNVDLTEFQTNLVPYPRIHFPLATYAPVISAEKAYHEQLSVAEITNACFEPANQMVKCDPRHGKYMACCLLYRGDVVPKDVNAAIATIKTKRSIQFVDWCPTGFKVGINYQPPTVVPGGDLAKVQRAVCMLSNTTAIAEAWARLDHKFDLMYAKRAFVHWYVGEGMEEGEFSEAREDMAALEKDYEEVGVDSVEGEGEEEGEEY

TPI % 10 µM ([1]; 10 µM compound, 1.5 mg/mL microtubular protein): 51%
IC50 ([1]; in vitro tubulin polymerisation inhibition, read-out: TPI IC50): 7.6 µM
Structure (SMILES): COc1ccc(S(=O)(=O)N(CC#N)c2cc(OC)c(Br)cc2OC)cc1 [Compound 25, N-(4-bromo-2,5-dimethoxyphenyl)-N-(cyanomethyl)-4-methoxybenzenesulphonamide]
Selectivity index HEK293 vs HeLa and MCF7 tumour cells [2]: 0.5 to 2 fold
IC50 ([2]; Homo sapiens, HEK293, non-tumorigenic cell line, 72 h, XTT, read-out: Antiproliferative activity IC50 HEK293): 0.045 µM
Early apoptosis (MCF7 cells; MCF7, 87.5 nM): 11.7%
Late apoptosis (MCF7 cells; MCF7, 87.5 nM): 5.8%
Live (AnV–/PI–) (MCF7 cells; MCF7, 87.5 nM): 82.1%
Necrosis (MCF7 cells; MCF7, 87.5 nM): 0.5%
Apoptotic cells (MCF7 cells; MCF7, 175 nM): 33%
Early apoptosis (MCF7 cells; MCF7, 175 nM): 23.8%
Late apoptosis (MCF7 cells; MCF7, 175 nM): 9.5%
Live (AnV–/PI–) (MCF7 cells; MCF7, 175 nM): 65.7%
Necrosis (MCF7 cells; MCF7, 175 nM): 1.0%
Apoptotic cells (MCF7 cells; MCF7, lowest concentration (87.5 nM)): 18%
